Values quoted from earlier work, collected in US20180263245A1, “WATER-BASED DISINFECTANT” (priority 2015, published 2018).

Legend:
[1] = EPA
bacteria = conditions: without the Cu π-complex

CCCCCCCCCCCC[N+](C)(C)Cc1ccccc1.[Cl-] [C12 Quaternary Ammonium Chloride, Dodecyl Dimethyl Benzyl Ammonium Chloride]
genetic toxicity [1]: does not believe it is a genetic toxicant | reproductive risks [1]: does not believe it poses unacceptable reproductive risks | tumors [1]: negative for introduction of tumors | bacterial reduction versus FDA minimum performance standards (bacteria): exceeded the FDA-indicated minimum performance standards
